As usually defined, the melting point is the temperature of the solid-liquid transition. Molecule `Cc1ccccc1-c1ccc(C(=O)N2Cc3ccc(C(=O)NC(C)CCc4ccccc4)n3Cc3ccccc32)cc1C` (stereo not given) returned a melting point of 152 to 154 °C. Consider `C=CCn1c2c(c3ccccc31)C(=O)C(Cn1ccnc1C)CC2` (stereo not given), for which the melting point came to 132 °C. `C#CCCCCCCCCOc1cccc(C(N)=O)c1` displayed a melting point of 111 to 112 °C. Molecule `CC(C)(C)OC(=O)NCCCCC(=O)Nc1cc(C(=O)O)ccc1Cl` gave a melting point of 203 °C. To `COc1cc2c(cc1N)CCCC2` belongs 121 °C; to `CC(C)C[C@H](NC(=S)Nc1ccccc1)C(=O)N[C@H]1CCOC1O` (stereo not given in full), 62 to 63.8 °C. Take `Cc1cc(CCCCCOc2c(Cl)cc(C3=NCCO3)cc2Cl)sn1`: the melting point lay in the range of 38 to 39.5 °C.

Consider `COc1cc(C(F)(F)F)cc(OC)c1-c1ccc(C[C@H](NC(=O)c2c(Cl)cccc2Cl)C(=O)O)cc1`, for which the melting point lay in the range of 231 to 232 °C.

As for `CN(C)CCn1cnc2cnc3ccccc3c21`, the melting point is more than 250 °C. To `CC(C)(C)OC(=O)NCc1cccc2c1C(=O)N(C1CCC(=O)NC1=O)C2=O` (stereo not given) belongs 180 to 182 °C. In the case of `Cn1c2c(c3ccccc3c1=O)C(=O)c1cc(OCc3ccccc3)c(OCc3ccccc3)cc1-2`, the melting point was in the range of 198 to 200 °C. In turn, `Cc1c(CC(=O)OCCCO)cc(-c2ccc(S(C)(=O)=O)cc2)n1-c1ccccc1` came in with a melting point of 108 to 110 °C. `O=C(Nc1nc(=O)c2cnn3c2n1CC=C3c1cccc(C(F)(F)F)c1)OCC(Cl)(Cl)Cl` showed a melting point of 225 to 226 °C. For `OC(CSc1ncnc2c1cnn2CC1CO1)CN1CCN(C(c2ccccc2)c2ccccc2)CC1` (stereo not given), the melting point fell in the range of 87 to 92 °C. Molecule `CSC[C@H](NC(=O)C(C)(C)SC)C(=O)O` registered a melting point of 120 to 121 °C.

`CCC(O)Cn1cc(-c2cccc(C(F)(F)F)c2)cn1` (stereo not given) returned a melting point of 77 to 79 °C. Regarding `Cc1cc(Br)c2nc(OCC(F)(F)F)ccc2c1`, the melting point fell in the range of 61 to 62 °C. For `CC(C)CNC1NC(=O)N(c2ccccc2C(=O)O)C(=O)N1`, the melting point was more than 300 °C. `COC(=O)c1ccc(NC(=O)c2cc(C(C)C)c(C(C)C)o2)cc1` showed a melting point of 198 to 200 °C.

Turning to `O=C(NN=Cc1ccc2ccccc2n1)c1cccc([N+](=O)[O-])c1`, the melting point fell in the range of 217 to 218 °C. Regarding `O=C(CCl)Nc1cscn1`, the melting point lay in the range of 115 to 119 °C. To `O=C(Cc1ccc(OCc2ccccc2F)cc1)NC1(C(=O)O)Cc2ccc(-c3ccc(Cl)cc3)cc2C1` (stereo not given) belongs 232 to 233 °C. The molecule `Cc1nnc(-c2nsc3ccc([N+](=O)[O-])cc23)o1` showed a melting point of more than 250 °C.

`CC(C)CC1(C(CC(C)Sc2cccs2)C(=O)NO)CCN(CCc2ccccc2)C1=O` (stereo not given) had a melting point of 104 to 105 °C. The molecule `CN1CC[C@@H](c2c(O)cc(O)c3c(=O)cc(-c4cc(O)ccc4Cl)oc23)[C@@H]1CO` came in with a melting point of 220 to 221 °C. As for `CC(C)COc1ccc(COc2ccc(CC(=O)O)cc2Cl)cc1`, the melting point lay in the range of 107 to 108 °C.

`C=CCNc1nnc(-c2ccc(F)c(F)c2Nc2ccc(CC)cc2F)o1` returned a melting point of 120 to 123 °C. To `CCCc1nn(-c2ccc(C(F)(F)F)cn2)cc1CCCOc1c(CC)cnn1CC(=O)O` belongs 135 to 136 °C; to `COc1ccccc1C1(O)C(O)CC(C)(C)C2CN(C(=O)Cc3c[nH]c4ccccc34)CC21` (stereo not given), 160 to 165 °C; to `CCC(=CC#N)c1ccc2c(c1)C1(CCCCC1)OC(=O)N2`, 173 to 174 °C. For `CCCCN(C=O)C1CC(C)(C)N(O)C(C)(C)C1`, the melting point fell in the range of 77 to 79 °C. To `CCO/C(=N/O)C1Cc2cc(C(=O)c3ccccc3F)c(O)c(C)c2O1` (stereo not given) belongs 70 to 71 °C. As to `N#Cc1cc(F)c(-n2cnc(C(F)(F)F)cc2=O)cc1F`, the melting point is 95 °C.

Take `CCCc1cc(O)nc(SCc2ccccc2)n1`: the melting point is 122 to 126 °C. Molecule `CCN1CCN(C(=O)c2ccc(-c3[nH]nc4c3C(=O)c3c(NC(=O)NN5CCOCC5)cccc3-4)s2)CC1` had a melting point of 186 to 188 °C.

The record behind these values is a melting point compilation (Tetko et al.; mined from patent text by program, amines drawn as free bases though some values may be those of a salt).
